Values of other authors in article PMC2686615 (International Immunology, 2009).

Legend:
HLA-DQ transgenic mice = conditions: immunization with peptides; cited from earlier work
NOD.DQ8 mice = conditions: oral response to gliadin, 26 peptides tested; cited from earlier work

Sequence	T cell response (HLA-DQ transgenic mice)	T cell response (NOD.DQ8 mice)
VVTVKVMGD [allergen P2 105–113]	failed to stimulate T cell responses	–
ENVVVKVYTV [allergen P2 102–110]	elicited T cell responses	–
QSTYQLLQE [gliadin 147–155]	–	negative
